A short description of the assay: Biochemical Assay: Test compounds were placed in a Greiner Bio-One (Monroe, N.C.) 1536-well black solid bottom assay plate. 200 millimolar (mM) Tris HCl, pH 7.4, 100 micromolar (μM) EDTA and 0.01% TWEEN-20™, final concentration, was used as the assay buffer. The LDHA reagent was 2 nanomolar (nM) Human LDHA (Meridian Life Science, Inc., Memphis, Tenn.), final concentration, in assay buffer.

With `O=C(O)c1csc(-n2nc(-c3ccccc3)cc2C(F)(F)F)n1`, the IC50 (usually the point on the concentration scale where inhibition reaches its midpoint) was “in the range around 29000 nM”.
For `O=C(O)c1csc(-n2nc(-c3ccccc3)cc2O)n1` the value was more than 57000 nM; for `NS(=O)(=O)c1ccc(Oc2c(-c3ccccc3)nn(-c3nc(C(=O)O)cs3)c2C2CC2)cc1`, less than 100 nM; for `N#Cc1c(Cc2ccc(S(N)(=O)=O)cc2)c(-c2ccccc2)nn1-c1nc(C(=O)O)cs1`, less than 100 nM.
The figure for `O=C(O)c1csc(-n2nc(-c3ccc(F)cc3F)cc2O)n1` is more than 57000 nM; for `NC(=O)c1ccc(Cc2c(-c3cccc(-c4ccccc4)c3)nn(-c3nc(C(=O)O)cs3)c2O)cc1` it is more than 57000 nM; for `Cc1c(Cc2ccc(S(N)(=O)=O)cc2)c(-c2ccccc2)nn1-c1nc(C(=O)O)cs1` it is less than 100 nM.
Turning to `NS(=O)(=O)c1ccc(Cc2cn(-c3nc(C(=O)O)cs3)nc2-c2ccc(F)c(F)c2)cc1`, the 50% inhibitory concentration (IC50) is less than 100 nM.
In the case of `CNS(=O)(=O)c1ccc(Cc2c(-c3cccc(-c4ccccc4)c3)nn(-c3nc(C(=O)O)cs3)c2O)cc1`, the IC50 was more than 57000 nM.
`NS(=O)(=O)c1ccc(NCc2cn(-c3nc(C(=O)O)cs3)nc2-c2ccccc2)cc1` yielded an IC50 of more than 57000 nM.
The figure for `NS(=O)(=O)c1ccc(Cc2cn(-c3nc(C(=O)O)cs3)nc2-c2ccccc2)cc1` is less than 100 nM; for `NS(=O)(=O)c1ccc(Cc2c(-c3ccccc3)nn(-c3nc(C(=O)O)cs3)c2-c2ccccc2)cc1` it is less than 100 nM.
The figure for `O=C(O)c1csc(-n2nc(-c3cc(F)cc(F)c3)cc2O)n1` is more than 57000 nM; for `O=C(O)c1ccc(Cc2c(-c3cccc(-c4ccccc4)c3)nn(-c3nc(C(=O)O)cs3)c2O)cc1` it is more than 57000 nM; for `NC(=O)c1csc(-n2nc(-c3cccc(-c4ccccc4)c3)c(Cc3ccc(S(N)(=O)=O)cc3)c2O)n1` it is more than 57000 nM.
Compound `NS(=O)(=O)c1ccc(Oc2cn(-c3nc(C(=O)O)cs3)nc2-c2ccccc2)cc1` showed an IC50 of less than 100 nM.
`O=C(O)c1csc(-n2nc(-c3ccc(F)c(F)c3)c(Cc3ccccc3)c2O)n1` yielded an IC50 of more than 57000 nM.
For `O=C(O)c1csc(-n2nc(-c3cccc(-c4ccccc4F)c3)cc2O)n1` the value was more than 57000 nM.
`NS(=O)(=O)c1ccc(Cc2c(-c3ccc(F)c(C#CC4CCNCC4)c3)nn(-c3nc(C(=O)O)cs3)c2CC2CC2)cc1F` yielded an IC50 of less than 100 nM.
The figure for `NS(=O)(=O)c1ccc(Cc2c(-c3ccc(F)c(C#CC4CC4)c3)nn(-c3nc(C(=O)O)cs3)c2CC2CC2)cc1F` is less than 100 nM; for `NS(=O)(=O)c1ccc(Cc2c(-c3ccc(F)c(C#CC4CCCC4)c3)nn(-c3nc(C(=O)O)cs3)c2CC2CC2)cc1F` it is less than 100 nM.
Take `NS(=O)(=O)c1ccc(Cc2c(-c3ccc(F)c(-c4ccccc4)c3)nn(-c3nc(C(=O)O)cs3)c2CC2CC2)cc1`: the IC50 was less than 100 nM.
For `NS(=O)(=O)c1ccc(Cc2c(-c3ccc(F)c(C#CCN4CCOCC4)c3)nn(-c3nc(C(=O)O)cs3)c2CC2CC2)cc1F` the value was less than 100 nM; for `COc1cccc(-c2cc(-c3nn(-c4nc(C(=O)O)cs4)c(C4CC4)c3Cc3ccc(S(N)(=O)=O)cc3F)ccc2F)c1`, less than 100 nM.
The figure for `NS(=O)(=O)c1ccc(Cc2c(-c3ccc(F)c(-c4cccc(F)c4)c3)nn(-c3nc(C(=O)O)cs3)c2C2CC2)c(F)c1` is less than 100 nM; for `Cc1ccc(-c2cc(-c3nn(-c4nc(C(=O)O)cs4)c(C4CC4)c3Cc3ccc(S(N)(=O)=O)cc3F)ccc2F)cc1` it is less than 100 nM; for `COc1cccc(-c2cc(-c3nn(-c4nc(C(=O)O)cs4)c(C4CC4)c3Cc3ccc(S(N)(=O)=O)c(F)c3)ccc2F)c1` it is less than 100 nM.
As for `Cc1csc(-c2cc(-c3nn(-c4nc(C(=O)O)cs4)c(CC4CC4)c3Cc3ccc(S(N)(=O)=O)c(F)c3)ccc2F)c1`, the IC50 is less than 100 nM.
`NS(=O)(=O)c1ccc(Cc2c(C3CCCC3)nn(-c3nc(C(=O)O)cs3)c2-c2ccccc2)cc1`: the IC50 result was “in the range around 29000 nM”.
For `Cc1ccc(-c2cc(-c3nn(-c4nc(C(=O)O)cs4)c(CC4CC4)c3Cc3ccc(S(N)(=O)=O)c(F)c3)ccc2F)o1` the value was less than 100 nM; for `CCOC(=O)c1csc(-n2nc(-c3cccc(-c4ccccc4)c3)c(Cc3ccc(S(N)(=O)=O)cc3F)c2C2CC2)n1`, more than 57000 nM; for `Cc1csc(-c2cc(-c3nn(-c4nc(C(=O)O)cs4)c(CC4CC4)c3Cc3ccc(S(N)(=O)=O)cc3F)ccc2F)c1`, less than 100 nM.
For `Cn1cc(-c2cc(-c3c(Cc4ccc(S(N)(=O)=O)c(F)c4)c(CC4CC4)nn3-c3nc(C(=O)O)cs3)ccc2F)cn1` the value was more than 57000 nM; for `Cc1ccc(-c2cc(-c3nn(-c4nc(C(=O)O)cs4)c(CC4CC4)c3Cc3ccc(S(N)(=O)=O)c(F)c3)ccc2F)s1`, less than 100 nM.
Compound `COc1cccc(-c2cc(-c3nn(-c4nc(C(=O)O)cs4)c(C(F)(F)F)c3Cc3ccc(S(N)(=O)=O)cc3)ccc2F)c1` returned an IC50 of less than 100 nM.
In turn, `Cc1ccc(-c2cc(-c3nn(-c4nc(C(=O)O)cs4)c(CC4CC4)c3Cc3ccc(S(N)(=O)=O)cc3F)ccc2F)s1` yielded a half-inhibitory concentration (IC50) of less than 100 nM.
The entry for `NS(=O)(=O)c1ccc(Cc2cn(-c3nc(Br)cs3)nc2-c2ccccc2)cc1` is “in the range around 29000 nM”.
Regarding `CCOC(=O)c1csc(-n2nc(-c3ccc(F)c(-c4ccc(F)cc4)c3)c(Cc3ccc(S(N)(=O)=O)c(F)c3)c2C2CC2)n1`, the IC50 entry was “in the range around 29000 nM”.
The compound `NS(=O)(=O)c1ccc(Cc2c(-c3ccc(F)c(-c4cccs4)c3)nn(-c3nc(C(=O)O)cs3)c2CC2CC2)cc1F` returned an IC50 of less than 100 nM.
Take `CN1CC=C(c2cc(-c3nn(-c4nc(C(=O)O)cs4)c(CC4CC4)c3Cc3ccc(S(N)(=O)=O)c(F)c3)ccc2F)CC1`: the IC50 was less than 100 nM.
For `NS(=O)(=O)c1ccc(Cc2c(-c3ccc(F)c(-c4ccc(F)cc4)c3)nn(-c3nc(C(=O)O)cs3)c2C(F)(F)F)cc1` the value was less than 100 nM.
For `Cc1ccc(-c2cc(-c3nn(-c4nc(C(=O)O)cs4)c(C(F)(F)F)c3Cc3ccc(S(N)(=O)=O)cc3)ccc2F)cc1` the value was less than 100 nM; for `Cc1noc(C)c1-c1cc(-c2c(Cc3ccc(S(N)(=O)=O)cc3F)c(CC3CC3)nn2-c2nc(C(=O)O)cs2)ccc1F`, more than 57000 nM; for `NS(=O)(=O)c1ccc(Cc2c(CC3CC3)nn(-c3nc(C(=O)O)cs3)c2-c2ccc(F)c(-c3cccc(F)c3)c2)cc1`, “in the range around 29000 nM”.
The compound `Cc1cnc(-c2cc(-c3nn(-c4nc(C(=O)O)cs4)c(CC4CC4)c3Cc3ccc(S(N)(=O)=O)c(F)c3)ccc2F)s1` gave an IC50 of less than 100 nM.
The figure for `COc1cccc(-c2cc(-c3c(Cc4ccc(S(N)(=O)=O)cc4)c(CC4CC4)nn3-c3nc(C(=O)O)cs3)ccc2F)c1` is more than 57000 nM; for `Cc1noc(C)c1-c1cc(-c2c(Cc3ccc(S(N)(=O)=O)c(F)c3)c(CC3CC3)nn2-c2nc(C(=O)O)cs2)ccc1F` it is more than 57000 nM; for `CCOC(=O)c1csc(-n2nc(-c3ccc(F)c(-c4cccc(OC)c4)c3)c(Cc3ccc(S(N)(=O)=O)c(F)c3)c2C2CC2)n1` it is more than 57000 nM.
The figure for `Cc1csc(-c2cc(-c3c(Cc4ccc(S(N)(=O)=O)c(F)c4)c(CC4CC4)nn3-c3nc(C(=O)O)cs3)ccc2F)c1` is more than 57000 nM.
For `Cc1noc(C)c1-c1cc(-c2nn(-c3nc(C(=O)O)cs3)c(CC3CC3)c2Cc2ccc(S(N)(=O)=O)cc2F)ccc1F` the value was less than 100 nM; for `Cn1cc(-c2cc(-c3nn(-c4nc(C(=O)O)cs4)c(CC4CC4)c3Cc3ccc(S(N)(=O)=O)cc3F)ccc2F)cn1`, less than 100 nM.
`NS(=O)(=O)c1ccc(Cc2c(-c3ccc(F)c(-c4ccc(F)cc4)c3)nn(-c3nc(C(=O)O)cs3)c2C2CC2)cc1F`: the 50% inhibitory concentration (IC50) is less than 100 nM.
The entry for `CCOC(=O)c1csc(-n2nc(-c3ccc(F)c(-c4cccc(F)c4)c3)c(Cc3ccc(S(N)(=O)=O)c(F)c3)c2C2CC2)n1` is “in the range around 29000 nM”; for `NS(=O)(=O)c1ccc(Cc2c(-c3ccc(F)c(-c4cccc(F)c4)c3)nn(-c3nc(C(=O)O)cs3)c2C(F)(F)F)cc1` it is less than 100 nM.
For `NS(=O)(=O)c1ccc(Cc2c(-c3ccc(F)c(-c4cccc(F)c4)c3)nn(-c3nc(C(=O)O)cs3)c2CC2CC2)cc1` the value was less than 100 nM; for `Cc1csc(-c2cc(-c3c(Cc4ccc(S(N)(=O)=O)cc4F)c(CC4CC4)nn3-c3nc(C(=O)O)cs3)ccc2F)c1`, more than 57000 nM.
The figure for `NS(=O)(=O)c1ccc(Cc2c(-c3ccc(F)c(-c4ccc(F)cc4)c3)nn(-c3nc(C(=O)O)cs3)c2C2CC2)c(F)c1` is less than 100 nM; for `CCOC(=O)c1csc(-n2nc(-c3ccc(F)c(-c4ccc(C)cc4)c3)c(Cc3ccc(S(N)(=O)=O)c(F)c3)c2C2CC2)n1` it is “in the range around 29000 nM”.
Compound `COc1cccc(-c2cc(-c3nn(-c4nc(C(=O)O)cs4)c(CC4CC4)c3Cc3ccc(S(N)(=O)=O)cc3)ccc2F)c1` showed an IC50 of less than 100 nM.
`Cc1ccc(-c2cc(-c3c(Cc4ccc(S(N)(=O)=O)cc4F)c(CC4CC4)nn3-c3nc(C(=O)O)cs3)ccc2F)s1` came in with an IC50 of more than 57000 nM.
For `NS(=O)(=O)c1ccc(Cc2c(-c3ccc(F)c(-c4cccc(F)c4)c3)nn(-c3nc(C(=O)O)cs3)c2C2CC2)cc1F` the value was less than 100 nM; for `Cc1ccc(-c2cc(-c3nn(-c4nc(C(=O)O)cs4)c(C4CC4)c3Cc3ccc(S(N)(=O)=O)c(F)c3)ccc2F)cc1`, less than 100 nM; for `Cc1noc(C)c1-c1cc(-c2nn(-c3nc(C(=O)O)cs3)c(CC3CC3)c2Cc2ccc(S(N)(=O)=O)c(F)c2)ccc1F`, less than 100 nM.
`Cn1cc(-c2cc(-c3nn(-c4nc(C(=O)O)cs4)c(CC4CC4)c3Cc3ccc(S(N)(=O)=O)c(F)c3)ccc2F)cn1` yielded an IC50 of less than 100 nM.
The figure for `CCOC(=O)c1csc(-n2nc(-c3ccc(F)c(-c4ccc(C)s4)c3)c(Cc3ccc(S(N)(=O)=O)c(F)c3)c2CC2CC2)n1` is more than 57000 nM; for `Cc1ncc(-c2cc(-c3nn(-c4nc(C(=O)O)cs4)c(CC4CC4)c3Cc3ccc(S(N)(=O)=O)c(F)c3)ccc2F)s1` it is less than 100 nM.
For `Cc1ccc(-c2cc(-c3c(Cc4ccc(S(N)(=O)=O)c(F)c4)c(CC4CC4)nn3-c3nc(C(=O)O)cs3)ccc2F)s1` the value was more than 57000 nM.

For the origin of these results see ChEMBL document CHEMBL5728971, “Small molecule inhibitors of lactate dehydrogenase and methods of use thereof” (2022).
